In brackets after ≈: the same amount, converted by molar mass. Read-outs that look alike come from different tables or passages of the source.
Columns and labels:
[1] = EGF10027 steady-state lapatinib concentrations in patient plasma and tumor; format: in vivo, human; conditions: for concentration at 12 h / concentration at 24 h: female, human, oral; for concentration at 12 h: 500 mg
HER2 [2] = biological target: HER2 (Homo sapiens, UniProt P04626); test: Quantitative IHC of phosphorylated HER2 in patient tumor (EGF10027); format: in vivo; conditions: for p-HER2 post-treatment OD: plasma […]
HER3 = test: Quantitative IHC of phosphorylated HER3 in patient tumor (EGF10027); format: in vivo, human; conditions: for p-HER3 post-treatment OD: plasma […]
[3] = tested on: HER2+ human breast cancer cell lines; design: method as in PMID 12467226; conditions: in vitro proliferative growth, cited from earlier work
HER2 phosphorylation = tested on: HER2 phosphorylation; design: method as in printed; conditions: abstract, ref not given, cited from earlier work
efflux transporter ABCB1 = conditions: read-out: IC50 for inhibition of the efflux transporter ABCB1; cited from earlier work
plasma albumin = tested on: plasma albumin; design: method as in printed; conditions: ref not given; cited from earlier work
[4] = tested on: isolated canine cardiac Purkinje fibers; design: method as in EGF10027 protocol, CIB RM2000/00481/06; conditions: ref EGF10027 protocol, CIB RM2000/00481/06; cited from earlier work
[5] = design: method as in EGF10027 protocol, CIB RM2000/00481/06; conditions: mice, rats and dogs; ref EGF10027 protocol, CIB RM2000/00481/06; cited from earlier work
[6] = design: method as in EGF10027 protocol, CIB RM2000/00481/06; conditions: ref EGF10027 protocol, CIB RM2000/00481/06, cited from earlier work
[7] = design: method as in EGF10027 protocol, CIB RM2000/00481/06; conditions: oral, male beagle dogs; ref EGF10027 protocol, CIB RM2000/00481/06; cited from earlier work
[8] = design: method as in EGF10027 protocol, CIB RM2000/00481/06; conditions: pregnant rats or rabbits, period of major organogenesis; ref EGF10027 protocol, CIB RM2000/00481/06; cited from earlier work
[9] = design: method as in RM2005/00018/00 (Study EGF20008); conditions: single agent, heavily pre-treated population; ref RM2005/00018/00 (Study EGF20008); cited from earlier work
HER2 [10] = conditions: read-out: IC50 for HER2; stated as target binding affinity, ref not given; cited from earlier work
EGFR = conditions: read-out: IC50 for EGFR; stated as target binding affinity, ref not given; cited from earlier work
ErbB2 tyrosine kinase = conditions: read-out: IC50, ErbB2 tyrosine kinase; in vitro kinase assay; ref EGF10027 protocol, CIB RM2000/00481/06; cited from earlier work
[11] = rats; ref EGF10027 protocol, CIB RM2000/00481/06; cited from earlier work
[12] = cited from earlier work; for frequency of achieving ≥75% inhibition of one of four key biomarkers (p-EGFR, p-ErbB2, p-ERK1/2, p-AKT): tumor
[13] = one patient with ABCB1 SNP C3435T, plasma 1 μM, tumor 9 μM

Chain of HER2 (Homo sapiens, UniProt P04626) (P04626 23-1255): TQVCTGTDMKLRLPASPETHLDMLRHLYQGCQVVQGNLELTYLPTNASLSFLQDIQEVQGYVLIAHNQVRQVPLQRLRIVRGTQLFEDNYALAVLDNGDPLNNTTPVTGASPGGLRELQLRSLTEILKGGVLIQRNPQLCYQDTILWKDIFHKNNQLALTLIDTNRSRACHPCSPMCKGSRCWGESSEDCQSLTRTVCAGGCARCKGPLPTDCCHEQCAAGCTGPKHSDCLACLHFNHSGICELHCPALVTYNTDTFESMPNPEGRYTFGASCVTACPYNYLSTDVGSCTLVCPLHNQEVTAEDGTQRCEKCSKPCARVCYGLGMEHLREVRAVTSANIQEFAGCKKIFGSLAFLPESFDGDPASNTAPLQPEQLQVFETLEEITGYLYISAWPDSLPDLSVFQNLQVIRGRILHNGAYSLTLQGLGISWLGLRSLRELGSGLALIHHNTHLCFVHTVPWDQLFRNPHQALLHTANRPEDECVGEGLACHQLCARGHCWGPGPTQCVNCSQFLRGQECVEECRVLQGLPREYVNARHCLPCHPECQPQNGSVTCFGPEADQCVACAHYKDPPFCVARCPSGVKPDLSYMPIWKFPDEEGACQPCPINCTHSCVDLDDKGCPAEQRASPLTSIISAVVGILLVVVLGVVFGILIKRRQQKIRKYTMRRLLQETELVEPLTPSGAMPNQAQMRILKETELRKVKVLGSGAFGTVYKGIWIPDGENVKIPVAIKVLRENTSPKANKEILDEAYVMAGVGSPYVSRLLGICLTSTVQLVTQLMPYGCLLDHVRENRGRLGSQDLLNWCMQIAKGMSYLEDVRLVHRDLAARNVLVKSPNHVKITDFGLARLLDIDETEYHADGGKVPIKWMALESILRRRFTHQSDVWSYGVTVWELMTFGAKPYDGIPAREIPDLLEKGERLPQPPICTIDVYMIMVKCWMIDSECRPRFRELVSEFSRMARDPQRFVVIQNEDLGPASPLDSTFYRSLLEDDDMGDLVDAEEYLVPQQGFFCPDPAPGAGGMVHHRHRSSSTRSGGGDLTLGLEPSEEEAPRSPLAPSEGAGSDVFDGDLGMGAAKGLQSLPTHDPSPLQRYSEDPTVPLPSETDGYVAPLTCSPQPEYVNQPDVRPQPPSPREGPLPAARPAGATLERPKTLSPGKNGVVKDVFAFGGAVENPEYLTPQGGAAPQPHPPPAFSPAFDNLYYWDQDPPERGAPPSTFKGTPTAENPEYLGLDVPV

## CS(=O)(=O)CCNCc1ccc(-c2ccc3ncnc(Nc4ccc(OCc5cccc(F)c5)c(Cl)c4)c3c2)o1 [lapatinib]
[1]; plasma, patients, median (range), 500 mg BID (n = 5), steady state, read-out: Plasma Cmin
  concentration at 12 h: 2750 nM
[1]; plasma, 1000 mg, patients, median (range), 1000 mg QD (n = 5), steady state, read-out: Plasma Cmin
  concentration at 24 h: 1540 nM
[1]; plasma, 1500 mg, patients, median (range), 1500 mg QD (n = 3), steady state, read-out: Plasma Cmin
  concentration at 24 h: 390 nM
[1]; tumor, patients, median (range), 500 mg BID (n = 5), steady state, read-out: Tumor Cmin
  concentration at 12 h: 13000 nM
[1]; tumor, 1000 mg, patients, median (range), 1000 mg QD (n = 5), steady state, read-out: Tumor Cmin
  concentration at 24 h: 2290 nM
[1]; tumor, 1500 mg, patients, median (range), 1500 mg QD (n = 3), steady state, read-out: Tumor Cmin
  concentration at 24 h: 2270 nM
[1]; patients, median (range), 500 mg BID (n = 5), steady state
  Tumor Cmin: 12.8 (7.9–31.1) μM
[1]; subject 5
  Lap conc, tumor: 25.60 µM
[1]; subject 124
  Lap conc, tumor: 56.02 µM
[1]; subject 801
  Lap conc, tumor: 1.98 µM
[1]; subject 803
  Lap conc, tumor: 2.08 µM
[1]; subject 804
  Lap conc, tumor: 7.90 µM
[1]; subject 1401
  Lap conc, tumor: 1.02 µM
[1]; subject 1403
  Lap conc, tumor: 9.08 µM
[1]; subject 1405
  Lap conc, tumor: 12.76 µM
HER2 [2]; mean of listed subjects
  p-HER2 post-treatment OD, mean: 9.00 OD
HER2 [2]; [13]
  HER2 phosphorylation in tumor: complete inhibition
HER2 [2]; subject 5, tumor 25.60 µM
  p-HER2 post-treatment OD: 10 OD
HER2 [2]; subject 1405, tumor 12.76 µM
  p-HER2 post-treatment OD: 17 OD
HER3; mean of listed subjects
  p-HER3 post-treatment OD, mean: 10.40 OD
HER3; [13]
  HER3 phosphorylation in tumor: complete inhibition
HER3; subject 5, tumor 25.60 µM
  p-HER3 post-treatment OD: 16 OD
HER3; subject 124, tumor 56.02 µM
  p-HER3 post-treatment OD: 7 OD
HER3; subject 801, tumor 1.98 µM
  p-HER3 post-treatment OD: 14 OD
HER3; subject 803, tumor 2.08 µM
  p-HER3 post-treatment OD: 5 OD
HER3; subject 804, tumor 7.90 µM
  p-HER3 post-treatment OD: 11 OD
HER3; subject 1401, tumor 1.02 µM
  p-HER3 post-treatment OD: 3 OD
HER3; subject 1405, tumor 12.76 µM
  p-HER3 post-treatment OD: 18 OD
[3]
  IC90 in multiple HER2+ human breast cancer cell lines: ~0.5 µg/mL (≈ 0.86 µM)
[3]; read-out: IC90 in multiple HER2+ human breast cancer cell lines
  IC90: ~900 nM
HER2 phosphorylation
  in vitro IC90 for inhibition of HER2 phosphorylation: ~0.5 µg/mL
HER2 phosphorylation; read-out: in vitro IC90 for inhibition of HER2 phosphorylation
  IC90: ~900 nM
Efflux transporter ABCB1
  IC50: 4000 nM
Plasma albumin
  binding to plasma albumin: > 99%
[4]
  concentration not altering action potential parameters: […]
[5]
  urinary excretion of the oral dose: < 1%
[6]; bile duct cannulated male rats, within 5 hours after dosing
  dose recovered in bile: 32%
[6]; oral, male Wistar Han rats
  overall recovery of radioactivity (nearly quantitative in feces): 90.0%
[7]
  overall recovery of radioactivity (nearly quantitative in feces): 89.9%
[8]
  fetal malformations: No fetal malform ations
[9]
  clinical benefit response rate: 6%
HER2 [10]
  IC50: 25 nM
EGFR
  IC50: […]
ErbB2 tyrosine kinase
  IC50: 9 nM
[11]
  single intravenous dose with no deaths: ≤ 21 mg/kg
  single oral dose with no deaths: up to 2,000 mg/kg
[12]; cancer patients, preliminary, ref study EGF10004
  incidence of rash: 12%
[12]; patients, ref preliminary analysis of EGF10004
  maximum tolerated dose (not reached at maximum dose given): > 1800 mg/day
[12]; 500 mg once daily, ref study EGF10004, listed as GW572016
  frequency of achieving ≥75% inhibition of one of four key biomarkers (p-EGFR, p-ErbB2, p-ERK1/2, p-AKT): […]
[12]; 650 mg once daily, ref study EGF10004, listed as GW572016
  frequency of achieving ≥75% inhibition of one of four key biomarkers (p-EGFR, p-ErbB2, p-ERK1/2, p-AKT): 50%
[12]; 900 mg once daily, ref study EGF10004, listed as GW572016
  frequency of achieving ≥75% inhibition of one of four key biomarkers (p-EGFR, p-ErbB2, p-ERK1/2, p-AKT): 44%
[12]; 1200 mg once daily, ref study EGF10004
  frequency of achieving ≥75% inhibition of one of four key biomarkers (p-EGFR, p-ErbB2, p-ERK1/2, p-AKT): 75%
[12]; 1600 mg once daily, ref study EGF10004, listed as GW572016
  frequency of achieving ≥75% inhibition of one of four key biomarkers (p-EGFR, p-ErbB2, p-ERK1/2, p-AKT): 83%
